Paper PMC9731497, “Identification of potent anti-Cryptosporidium new drug leads by screening traditional Chinese medicines” (PLOS Neglected Tropical Diseases, 2022)
Counter-ions that a name gives are not always drawn. Like-named read-outs stand apart in the source and are kept apart here.

Legend:
[1] = system: HCT-8 cells; assay: Host cell viability assay (Cell-Titer Glo); conditions: HCT-8 cells, 48 h, 1 μM
Description: (§2) HCT-8 cells (4 × 10^4 cells/well) 100 μl were seeded in 96-well plates, cultured for 24 h, and then treated for 48 h with different concentrations of hit compounds (10^1, 1, 10^−1, 10^−2, 10^−3, 10^−4 μM). After a 48-h incubation period, equilibrate the 96-well plates in room temperature (RT) for 30 minutes. Then, equal volume of Cell-Titer Glo (Promega) reagent was added to each treated well, the plate was shaken on an orbital shaker for 2 minutes then incubated for 10 minutes at RT. The luminescence was quantified by the GloMax Navigator plate reader (Promega, Japan) and the cell viability was evaluated as directed by the kit manufacturer. The luminescence signal of control wells containing DMSO was set to 100% cell viability. […] Graph Pad Prism 7.0.1 was used to determine CC50 values.

[2] = Host cell viability assay (Cell-Titer Glo)
Description: as §2

[3] = system: C. parvum HNJ-1 strain; assay: In vivo C. parvum growth inhibition assay (oocyst shedding in feces of infected SCID mice, sugar flotation); parameters: species or system Cryptosporidium parvum; conditions: for numbers of oocysts discharged in the feces: 50, 25 and 12.5 mg/kg oral, infected SCID mice; for % of oocysts shedding / % reduction in oocysts shedding: initial dose-finding (S1 Table), 1 mouse; for % reduction in oocyst shedding: SCID mice n=3, vs untreated infected control
[4] = system: C. parvum HNJ-1 strain; assay: In vitro C. parvum growth inhibition assay (Sporo-Glo staining, fluorescence microscopy count in infected HCT-8 cells); type: cell-based, Cryptosporidium parvum; conditions: for EC50 / inhibition at 1 µM: Cryptosporidium parvum; for EC50: read-out: EC50 value; for inhibition at 1 µM: read-out: Parasite inhibition (%); for Selectivity index: ratio of CC50 (HCT-8) / EC50 (C. parvum)
Description: The primary screening of compounds for C. parvum was performed as follows: HCT-8 cells were seeded in 96-well plates at a density of 2 × 10^4 cells/well and allowed to grow overnight. Before infecting cells, Cryptosporidium oocysts were excysted to sporozoites. 87 compounds were tested against C. parvum at a single concentration of 1 μM. Each compound was tested once. Infected HCT-8 cells and uninfected HCT-8 cells were used as positive and negative controls, respectively, in medium containing 0.1% DMSO. Nitazoxanide was used as a standard comparative drug. In vitro inhibition assays were carried out as previously described. Briefly, oocysts were suspended in 1 ml of 0.1% sodium hypochlorite in PBS, incubated for 5 min at 4°C, centrifuged for 10 min at 3000 rpm, and washed three times in PBS. The oocysts were then suspended in excystation solution consisting of 0.75% sodium taurocholate and 0.25% trypsin dissolved in 0.1 M phosphate buffer (with 93.4 mM K2HPO4 and 6.5 mM KH2PO4; pH 8.0) and incubated at 37°C for 1 h. The oocyst/sporozoite suspensions were then rinsed in 1 x PBS (with 137 mM NaCl, 2.7 mM KCl, 8 mM Na2HPO4, and 2 mM KH2PO4; pH 7.5) once more before being filtered through a 5-μm pore-size PVDF filter (Millipore, Burlington, MA, USA) with 5 ml syringe to remove the oocyst wall. HCT-8 cells were seeded in 96-well plates (Thermo Fisher Scientific Inc., MA, USA) and incubated overnight. The cells were then infected with C. parvum sporozoites (4 ×10^4 sporozoites/well) containing in RPMI-1640 medium for 3 h. After 3h inoculation, the non-infected parasite or debris were washed with new RPMI-1640 media. At this point, in RPMI-1640 medium containing 1 μM library compounds were added. Infected cells were incubated for an additional 45 h. Following incubation, the infected cells were fixed for 10 minutes in ice-cold 100% methanol at room temperature. Plates were then carefully rinsed 3 times with PBS. The parasite infected cells were then blocked with 1% bovine serum albumin (BSA) in PBS for 30 minutes and then stained with Sporo-Glo (an anti-Cryptosporidium polyclonal antibody) (Waterborne Environmental, Inc., VA, USA) protected from light for 1 h at room temperature. Finally, cells were washed twice with 1 x PBS-T (1 x PBS supplemented with 0.01% Tween). A Keyence BZ-II 9000 was used to capture the images (KEYENCE, Osaka, Japan). The plates were imaged with a HS all-in-one fluorescence microscope using a 20 x objective. The image output was imported into Microsoft excel for data organization and analyses. All C. parvum parasite in the well were counted.
For a second investigation, four selective hit compounds were used to determine the half-maximum inhibitory concentration (EC50). The parasites were treated with various doses of compounds (ranging from 0.008–1 μM). HCT-8 cells (2 × 10^4 cells/well) were grown for 24 h before being infected with 4 × 10^4 C. parvum sporozoites in 96-well plates. […] Sporo-Glo was used for C. parvum staining as described above. Fluorescence microscopy with a Keyence BZ-II 9000 imager was used to count all Cryptosporidium in the wells (KEYENCE, Osaka, Japan). EC50 vales were determined by analyzing dose-response curves made by GraphPad Prism (GraphPad Software, CA, USA).

[5] = system: C. parvum; assay: Histopathological analysis and immunohistochemistry of ileum of C. parvum-infected mice; type: in vivo, Cryptosporidium parvum; parameters: key to severity of C. parvum infection in ileum, Score: -, no oocysts; 1+, mild focal infection; 2+, moderate multifocal infection; 3+, severe diffuse infection; conditions: for severity of C. parvum infection in ileum, Score: HE and immunohistochemistry, most severe area, day 14, dose not stated; for reduction of oocysts, histopathological and scanning electron microscopy findings: ileum of infected treated mice (S2 Fig)
Description: (§1) We performed a histopathological analysis to evaluate the growth inhibitory effects and toxicity of the hit compounds in C. parvum-infected mice. In brief, ileum was collected, fixed in 10% neutral buffered formalin, and paraffin-embedded. Each section was cut to a thickness of 4 μm for hematoxylin and eosin (HE) staining and immunohistochemistry. Immunohistochemistry (IHC) was performed following standard techniques using the Envision+ system (Agilent Technologies, Inc., Santa Clara, CA) and 3,3-diaminobenzidine (DAB)(Dojindo, Kumamoto, Japan). Anti-Toxoplasma gondii (RH strain) rabbit polyclonal IgG (Abcam, Cambridge, UK) was used as the primary antibody. The antibody cross reacts with C. Parvum. To reduce the endogenous peroxidase activity, the sections were incubated with 3% H2O2 for 5 minutes. Sections were incubated with primary antibodies overnight at 4°C. After washing with PBS with Tween 20 (PBST), sections were incubated with Envision+ single polymer solution (Agilent Technologies Inc.) for 30 minutes at room temperature. Sections were counterstained with Mayer’s hematoxylin. The severity of C. parvum infection was evaluated in the most severe area, and scored from—to 3+ (-, no oocysts; 1+, mild focal infection; 2+, moderate multifocal infection; 3+, severe diffuse infection). Sub-effects of drugs (hepatocellular damage) were evaluated for major histological changes in karyomegaly, hepatocellular hypertrophy, and interstitial fibrosis/inflammation. We also checked the organs (liver, heart, lung, kidney, and intestines) alteration at necropsy whether it has abnormal or normal.

[6] = for body weight of treated infected mice: initial dose-finding doses, 11 consecutive days (S1 Fig)
Description: The growth inhibitory effect of the hit compounds was assessed in a mouse model infected with C. parvum oocysts. In this experiment, four-week-old female SCID mice (Charles River Laboratories, Shizuoka, Japan) were used. In the infected groups, mice were orally inoculated with 1.0 × 10^5 C. parvum oocysts by using sterile gavage needles. Initially, four compounds were tested at different concentrations to figure out the optimum dosages. Six groups of mice were given oral dosages of 50, 25, and 12.5 mg/kg body weight (BW) of two compounds (alisol-A and alisol-B). […] Bufotalin was given orally at three different doses to the other mouse group: 0.1, 0.05, and 0.025 mg/kg BW. […] The positive control group consisted of infected and untreated mice, whereas the negative control group consisted of noninfected and untreated mice. Treatment began on the third day after infection and lasted until the thirteenth day. The body weight and condition were checked every day, and treatment was given based on the body weight. On days 1, 3, 6, 7, 9, 12, 14, fecal samples were taken. The total number of oocysts per gram was calculated after counting the oocysts in the feces using the sugar flotation method. The treated and untreated mice were euthanized by cervical dislocation on day 14, and a thorough necropsy was performed.

[7] = Liver histology (sub-effects of drugs, hepatocellular damage) in treated mice; type: in vivo, SCID mice; conditions: HE stain, infected treated mice (S3 Fig)
Description: as §1

[8] = human, HCT-8 cells, Host cell viability (%), 48 h, 1 μM
[9] = 1 μM, 45 h, C. parvum HNJ-1 strain in HCT-8 cells, first screen
[10] = human, Host cell viability (%), HCT-8 cells, 48 h, 1 μM

C[C@H](C[C@H](O)[C@@H](O)C(C)(C)O)C1=C2C[C@H](O)[C@H]3[C@@]4(C)CCC(=O)C(C)(C)[C@@H]4CC[C@]3(C)[C@@]2(C)CC1 [Alisol-A]
Host cell viability (%) [1]: 99.5%
CC50 at 48 h ([2]; human, HCT-8 cells): 59.6 µM
viability at 48 h, 1 µM [2, 8]: > 95%
numbers of oocysts discharged in the feces [3]: no significant reduction
% of oocysts shedding ([3]; 12.5 mg/kg BW, 11 days): 55.6%
% reduction in oocysts shedding ([3]; 12.5 mg/kg BW, 11 days): 44.4%
EC50 ([4]; HCT-8, C. parvum HNJ-1, 0.008–1 μM, 45 h, mean of three experiments): 0.123 ± 0.0067 µM
inhibition at 1 µM [4, 9]: 78.1%
Selectivity index [4]: 484.4
severity of C. parvum infection in ileum, Score [5]: 3+
reduction of oocysts, histopathological and scanning electron microscopy findings [5]: no notable reduction of oocysts
body weight of treated infected mice [6]: not significant
body weight of treated infected mice ([6]; listed as alisol-A): no significant difference
adverse effects / death of treated mice ([6]; oral, at 50 and 25 mg/kg body weight, infected SCID mice): died

C[C@H](C[C@H](O)[C@H]1OC1(C)C)C1=C2C[C@H](O)[C@H]3[C@@]4(C)CCC(=O)C(C)(C)[C@@H]4CC[C@]3(C)[C@@]2(C)CC1 [Alisol-B]
Host cell viability (%) [1]: 97.6%
CC50 at 48 h ([2]; human): 36.7 µM
viability at 48 h, 1 µM [2, 10]: > 95%
numbers of oocysts discharged in the feces [3]: no significant reduction
% of oocysts shedding ([3]; 12.5 mg/kg BW, 11 days): 61.3%
% reduction in oocysts shedding ([3]; 12.5 mg/kg BW, 11 days): 38.7%
EC50 ([4]; HCT-8, 45 h): 0.0796 ± 0.0138 µM
inhibition at 1 µM ([4]; HCT-8, 45 h): 92.9%
Selectivity index [4]: 460.6
severity of C. parvum infection in ileum, Score [5]: 2+
reduction of oocysts, histopathological and scanning electron microscopy findings [5]: no notable reduction of oocysts
adverse effects / death of treated mice ([6]; mouse, in vivo): died

CN1[C@@H]2CC[C@H]1C[C@@H](OC(=O)C(CO)c1ccccc1)C2 (stereo partly drawn) [Atropine sulfate, reference compound]
No. of oocysts, Mean ([3]; 50 mg/kg BW oral, 11 days, SCID mice n=3, mean of days 3, 6, 7, 9, 12, 14): 96.6
% reduction in oocyst shedding ([3]; 50 mg/kg BW oral, 11 days): 56.2%
No. of oocysts, Mean ([3]; 100 mg/kg BW oral, 11 days, SCID mice n=3, mean of days 3, 6, 7, 9, 12, 14): 91.1
% reduction in oocyst shedding ([3]; 100 mg/kg BW oral, 11 days): 58.7%
No. of oocysts, Mean ([3]; 200 mg/kg BW oral, 11 days (day 3–13 p.i.), SCID mice n=3, mean of oocysts shed on days 3, 6, 7, 9, 12, 14): 71.1
% reduction in oocyst shedding ([3]; 200 mg/kg BW oral, 11 days): 67.8%
% of oocysts shedding ([3]; 25 mg/kg BW, 11 days): 75.2%
% reduction in oocysts shedding ([3]; 25 mg/kg BW, 11 days): 24.8%
% reduction in oocysts shedding ([3]; 50 mg/kg BW, 11 days): 50.9%
% of oocysts shedding ([3]; 100 mg/kg BW, 11 days): 45.1%
% reduction in oocysts shedding ([3]; 100 mg/kg BW, 11 days): 54.9%
EC50 ([4]; HCT-8, 45 h): 0.254 ± 0.0303 µM
inhibition at 1 µM ([4]; HCT-8, 45 h): 72.3%
severity of C. parvum infection in ileum, Score [5]: 2+
histological findings in liver [7]: inflammation
body weight of treated infected mice [6]: not significant

CC(=O)O[C@H]1[C@H]2O[C@]23[C@@H]2CC[C@]4(O)C[C@@H](O)CC[C@]4(C)[C@H]2CC[C@]3(C)[C@H]1c1ccc(=O)oc1 [Cinobufotalin]
viability at 48 h, 1 µM [2, 10]: 97.8%
inhibition at 1 µM ([4]; HCT-8, 45 h): 70.7%

COc1cc(CNC(=O)CCCCCCC(C)C)ccc1O [Dihydrocapsaicin]
viability at 48 h, 1 µM [2, 8]: 98.4%
inhibition at 1 µM [4, 9]: 70.8%

CC(C)=CCC[C@](C)(O[C@@H]1O[C@H](CO)[C@@H](O)[C@H](O)[C@H]1O)[C@H]1CC[C@]2(C)[C@@H]1[C@H](O)C[C@@H]1[C@@]3(C)CC[C@H](O)C(C)(C)[C@@H]3[C@@H](O[C@@H]3O[C@H](CO)[C@@H](O)[C@H](O)[C@H]3O[C@@H]3O[C@@H](C)[C@H](O)[C@@H](O)[C@H]3O)C[C@]12C [Ginsenoside-Re]
viability at 48 h, 1 µM [2, 8]: 98.7%
inhibition at 1 µM [4, 9]: 71.2%

CC(C)=CCC[C@](C)(O[C@@H]1O[C@H](CO)[C@@H](O)[C@H](O)[C@H]1O)[C@H]1CC[C@]2(C)[C@@H]1[C@H](O)C[C@@H]1[C@@]3(C)CC[C@H](O)C(C)(C)[C@@H]3[C@@H](O[C@@H]3O[C@H](CO)[C@@H](O)[C@H](O)[C@H]3O)C[C@]12C [Ginsenoside-Rg1]
viability at 48 h, 1 µM [2, 8]: 99.1%
inhibition at 1 µM [4, 9]: 67.9%

CC(C)=CC[C@@H](O)C1=CC(=O)c2c(O)ccc(O)c2C1=O [Shikonin]
inhibition at 1 µM ([4]; HCT-8, 45 h): 66.2%
